Test results reported in patent US20040091853A1 (priority 2003, published 2004).
Like-named read-outs stand apart in the source and are kept apart here.

Assays:
[1] = system: pNL4-3-derived HIV reporter particles; format: cell-based
[2] = system: pNL4-3-derived HIV reporter particles; format: cell-based; settings: particles made in presence of 1 μM inhibitor; supernatants tested on target cells
[3] = system: VSV-G-enveloped particles; format: cell-based, HIV

Row | Compound | effect on ability of HIV reporter particle to transfer β-lactamase to target cells [1] | percentage of blue cells [1] | percentage of blue cells [2] | blocking of transfer of β-lactamase [1] | blue cells in presence versus absence of NH4Cl [3] | percentage of blue cells [3] | blocking of transfer of β-lactamase to target cells [1] | blocking of transfer of β-lactamase to target cells [3]
1 | CCc1cc(NCc2nc3c(Cl)ccc(Cl)c3o2)c(O)nc1C [L-697661] | had no effect | 10-20% blue cells | ˜10-20% blue cells | – | – | – | – | –
2 | Cl.N [NH4Cl] | – | ˜10% blue cells | – | did not block transfer of β-lactamase | significantly fewer blue cells | ˜10% blue cells | – | –
3 | enfuvirtide | – | – | – | – | – | – | blocked the transfer of β-lactamase to target cells | neither agent blocked transfer of β-lactamase
